Laboratory results from patent US4352792A, “3-Alkoxyflavone antiviral agents” (priority 1979, dated 1982).
Values after ≈ are worked out from the molar mass of the structure shown. Read-outs that look alike come from different tables or passages of the source.

Legend:
rhinovirus HGP = test: Inhibition of viral cytopathogenic effect in HeLa cells (rhinovirus HGP); format: cell-based; conditions: Enterovirus, 48 h, read-out: IC50 rhinovirus HGP
Coxsackie virus B1 [1] = test: Inhibition of viral cytopathogenic effect in HeLa cells (Coxsackie virus B1); format: cell-based; conditions: for IC50: 24 h, read-out: IC50 Coxsackie virus B1
rhinovirus type 21 = test: in vitro antiviral spectrum; format: cell-based; conditions: Enterovirus, read-out: Minimum inhibitory concentration
rhinovirus type 4 = test: in vitro antiviral spectrum; format: cell-based; conditions: Enterovirus, read-out: Minimum inhibitory concentration
rhinovirus type 26 = test: in vitro antiviral spectrum; format: cell-based; conditions: Enterovirus, read-out: Minimum inhibitory concentration
rhinovirus type 53 = test: in vitro antiviral spectrum; format: cell-based; conditions: Enterovirus, read-out: Minimum inhibitory concentration
rhinovirus type 17 = test: in vitro antiviral spectrum; format: cell-based; conditions: Enterovirus, read-out: Minimum inhibitory concentration
rhinovirus type 50 = test: in vitro antiviral spectrum; format: cell-based; conditions: Enterovirus, read-out: Minimum inhibitory concentration
rhinovirus type 47 = test: in vitro antiviral spectrum; format: cell-based; conditions: Enterovirus, read-out: Minimum inhibitory concentration
rhinovirus type 13 = test: in vitro antiviral spectrum; format: cell-based; conditions: Enterovirus, read-out: Minimum inhibitory concentration
rhinovirus type 16 = test: in vitro antiviral spectrum; format: cell-based; conditions: Enterovirus, read-out: Minimum inhibitory concentration
rhinovirus type 32 = test: in vitro antiviral spectrum; format: cell-based; conditions: Enterovirus, read-out: Minimum inhibitory concentration
rhinovirus type 34 = test: in vitro antiviral spectrum; format: cell-based; conditions: Enterovirus, read-out: Minimum inhibitory concentration
rhinovirus type 14 = test: in vitro antiviral spectrum; format: cell-based; conditions: Enterovirus, read-out: Minimum inhibitory concentration
rhinovirus type 44 = test: in vitro antiviral spectrum; format: cell-based; conditions: Enterovirus, read-out: Minimum inhibitory concentration
rhinovirus type 9 = test: in vitro antiviral spectrum; format: cell-based; conditions: Enterovirus, read-out: Minimum inhibitory concentration
rhinovirus type 36 = test: in vitro antiviral spectrum; format: cell-based; conditions: Enterovirus, read-out: Minimum inhibitory concentration
rhinovirus type 2 = test: in vitro antiviral spectrum; format: cell-based; conditions: Enterovirus, read-out: Minimum inhibitory concentration
rhinovirus type 1A = test: in vitro antiviral spectrum; format: cell-based; conditions: Enterovirus, read-out: Minimum inhibitory concentration
rhinovirus type 3 = test: in vitro antiviral spectrum; format: cell-based; conditions: Enterovirus, read-out: Minimum inhibitory concentration
rhinovirus type 39 = test: in vitro antiviral spectrum; format: cell-based; conditions: Enterovirus, read-out: Minimum inhibitory concentration
rhinovirus type 30 = test: in vitro antiviral spectrum; format: cell-based; conditions: Enterovirus, read-out: Minimum inhibitory concentration
rhinovirus type 55 = test: in vitro antiviral spectrum; format: cell-based; conditions: Enterovirus, read-out: Minimum inhibitory concentration
acute toxicity in mice = conditions: mouse, in vivo, day 21
Coxsackie virus B1 [2] = test: Anti-Coxsackie virus activity, lethal infection in mice; conditions: Mus musculus, 504 h, read-out: Survival
influenzavirus A2/Adachi = test: Anti-influenzavirus activity in mice; conditions: up to 21 days
[3] = 50% inhibition of viral c.p.e., HeLa cells, 2 days at 33° C.
[4] = 50% inhibition of viral c.p.e., HeLa cells, 1 day at 37° C.
[5] = ip, single dose i.p., dissolved in dimethyl sulfoxide, read-out: LD50 i.p.
[6] = po, single dose p.o., suspended in 0.5% carboxymethylcellulose, read-out: LD50 p.o.

COc1cc(O)c2c(=O)c(OC)c(-c3ccc(OC(=O)C(O)C(O)C(=O)O)c(OC)c3)oc2c1 (stereo not shown) [4'-(3-carboxy-2,3-dihydroxypropionyloxy)-5-hydroxy-3,3',7-trimethoxyflavone]
IC50 (rhinovirus HGP; [3]): 0.1 to 0.2 µg/mL (≈ 0.21 to 0.42 µM)
IC50 (Coxsackie virus B1 [1]; [4]): 0.1 to 0.2 µg/mL (≈ 0.21 to 0.42 µM)

COc1c(-c2ccc(N)cc2)oc2cc(O)cc(O)c2c1=O [4'-amino-5,7-dihydroxy-3-methoxyflavone]
IC50 (rhinovirus HGP; [3]): 1 to 3 µg/mL (≈ 3.34 to 10 µM)
IC50 (Coxsackie virus B1 [1]; [4]): 3 to 10 µg/mL (≈ 10 to 33.4 µM)

COc1cc(O)c2c(=O)c(OC)c(-c3ccc(O)cc3)oc2c1 [4',5-dihydroxy-3,7-dimethoxyflavone]
MIC (rhinovirus type 21): 0.3 µg/mL (≈ 0.955 µM)
MIC (rhinovirus type 4): 0.3 to 1 µg/mL (≈ 0.955 to 3.18 µM)
MIC (rhinovirus type 26): 0.3 µg/mL (≈ 0.955 µM)
MIC (rhinovirus type 53): 0.3 µg/mL (≈ 0.955 µM)
MIC (rhinovirus type 17): 0.1 µg/mL (≈ 0.318 µM)
MIC (rhinovirus type 50): 0.3 µg/mL (≈ 0.955 µM)
MIC (rhinovirus type 47): 0.3 µg/mL (≈ 0.955 µM)
MIC (rhinovirus type 13): 0.3 to 1 µg/mL (≈ 0.955 to 3.18 µM)
IC50 (rhinovirus HGP; HeLa): 0.1 µg/mL (≈ 0.318 µM)
MIC (rhinovirus type 16): 0.3 to 1 µg/mL (≈ 0.955 to 3.18 µM)
MIC (rhinovirus type 32): 0.3 µg/mL (≈ 0.955 µM)
MIC (rhinovirus type 34): 0.3 µg/mL (≈ 0.955 µM)
MIC (rhinovirus type 14): 0.3 µg/mL (≈ 0.955 µM)
MIC (rhinovirus type 44): 0.5 µg/mL (≈ 1.59 µM)
MIC (rhinovirus type 9): 0.3 µg/mL (≈ 0.955 µM)
IC50 (Coxsackie virus B1 [1]; HeLa): 0.1 µg/mL (≈ 0.318 µM)
MIC (Coxsackie virus B1 [1]; read-out: Minimum inhibitory concentration): 0.1 µg/mL (≈ 0.318 µM)
MIC (rhinovirus type 36): 0.3 µg/mL (≈ 0.955 µM)
MIC (rhinovirus type 2): 0.1 µg/mL (≈ 0.318 µM)
MIC (rhinovirus type 1A): 0.03 µg/mL (≈ 0.0955 µM)
MIC (rhinovirus type 3): 0.3 µg/mL (≈ 0.955 µM)
MIC (rhinovirus type 39): 0.3 µg/mL (≈ 0.955 µM)
MIC (rhinovirus type 30): 0.1 µg/mL (≈ 0.318 µM)
MIC (rhinovirus type 55): 0.1 to 0.3 µg/mL (≈ 0.318 to 0.955 µM)

COc1cc(O)c2c(=O)c(OC)c(-c3ccc(OC(=O)[C@@H](N)CCC(N)=O)c(OC)c3)oc2c1 [4'-(L-glutaminyloxy)-5-hydroxy-3,3',7-trimethoxyflavone]
IC50 (rhinovirus HGP; [3]): 0.25 to 0.5 µg/mL (≈ 0.529 to 1.06 µM)
LD50 at 504 h (acute toxicity in mice; [5]): > 1000 mg/kg
LD50 at 504 h (acute toxicity in mice; [6]): > 5000 mg/kg
IC50 (Coxsackie virus B1 [1]; HeLa): 0.25 to 0.5 µg/mL (≈ 0.529 to 1.06 µM)
responders at 10 mg/kg (Coxsackie virus B1 [2]; iv): 54%

COc1cc(O)c2c(=O)c(OC)c(-c3ccc(O)cc3OC)oc2c1 [4',5-dihydroxy-2,',3,7-trimethoxyflavone, 4',5-dihydroxy-2',3,7-trimethoxyflavone]
IC50 (rhinovirus HGP; [3]): 0.3 µg/mL (≈ 0.871 µM)
IC50 (Coxsackie virus B1 [1]; [4]): 1 to 3 µg/mL (≈ 2.9 to 8.71 µM)

COc1cc(O)c2c(=O)c(OC)c(-c3ccc(O[C@@H]4O[C@H](CO)[C@@H](O)[C@H](O)[C@H]4O)c(OC)c3)oc2c1 [4'-(β-D-glucopyranosyloxy)-5-hydroxy-3,3',7-trimethoxyflavone]
IC50 (rhinovirus HGP; [3]): 0.25 µg/mL (≈ 0.494 µM)
IC50 (Coxsackie virus B1 [1]; [4]): 0.25 to 0.5 µg/mL (≈ 0.494 to 0.987 µM)

COc1cc(O)c2c(=O)c(OC)c(-c3ccc(OC(=O)[C@@H](N)CCCCN)c(OC)c3)oc2c1 [5-hydroxy-4'-(L-lysyloxy)-3,3',7-trimethoxyflavone]
IC50 (rhinovirus HGP; [3]): 0.25 µg/mL (≈ 0.529 µM)
LD50 at 504 h (acute toxicity in mice; [5]): 1000 mg/kg
LD50 at 504 h (acute toxicity in mice; [6]): > 5000 mg/kg
IC50 (Coxsackie virus B1 [1]; HeLa): 0.25 µg/mL (≈ 0.529 µM)
responders at 10 mg/kg (Coxsackie virus B1 [2]; iv): 54%

NC12CC3CC(CC(C3)C1)C2 [amantadine, reference compound]
Survivals (%) (influenzavirus A2/Adachi; 20 mg/kg × 9, i.p.): 0%
Survivals (influenzavirus A2/Adachi; 40 mg/kg × 9, i.p., survivors/total): 2/7
Survivals (%) (influenzavirus A2/Adachi; 40 mg/kg × 9, i.p.): 29%

CCOC(=O)Oc1ccc(-c2oc3cc(OC)cc(OC(=O)OCC)c3c(=O)c2OC)cc1OC [4',5-bis-(ethoxycarbonyloxy)-3,3',7-trimethoxyflavone]
IC50 (rhinovirus HGP; [3]): 0.3 to 1 µg/mL (≈ 0.614 to 2.05 µM)
IC50 (Coxsackie virus B1 [1]; [4]): 0.3 to 1 µg/mL (≈ 0.614 to 2.05 µM)
responders at 10 mg/kg (Coxsackie virus B1 [2]; po): 30%
responders at 20 mg/kg (Coxsackie virus B1 [2]; po): 30%

COc1cc(OC)c2c(=O)c(OC)c(-c3ccc(O)c(OC)c3)oc2c1 [4'-hydroxy-3,3',5,7-tetramethoxyflavone]
IC50 (rhinovirus HGP; [3]): 2 to 7 µg/mL (≈ 5.58 to 19.5 µM)
IC50 (Coxsackie virus B1 [1]; [4]): 6 to 7 µg/mL (≈ 16.7 to 19.5 µM)

CCOc1c(-c2ccc(O)c(OC)c2)oc2cc(OC)cc(O)c2c1=O [3-ethoxy-4',5-dihydroxy-3',7-dimethoxyflavone]
IC50 (rhinovirus HGP; [3]): 0.05 to 0.1 µg/mL (≈ 0.14 to 0.279 µM)
IC50 (Coxsackie virus B1 [1]; [4]): 0.05 to 0.1 µg/mL (≈ 0.14 to 0.279 µM)

COc1ccc(-c2oc3cc(O)cc(O)c3c(=O)c2OC)cc1 [5,7-dihydroxy-3,4'-dimethoxyflavone]
IC50 (rhinovirus HGP; HeLa): 0.5 µg/mL (≈ 1.59 µM)
IC50 (Coxsackie virus B1 [1]; HeLa): > 4 µg/mL
